Test results: ChEMBL document CHEMBL2046292, “The macrocycle of leinamycin imparts hydrolytic stability to the thiol-sensing 1,2-dithiolan-3-one 1-oxide unit of the natural product” (Bioorg Med Chem Lett, 2012)

Tests used:
Type in all cases: physicochemical
[1] = Half life of the compound at 70 uM in MOPS aqueous buffer (300 mM, pH 7.0) containing MeCN (25% v/v) at 24 degC in presence of 700 uM GSH by HPLC analysis; conditions: pH 7, 70 µM
[2] = Half life of the compound at 70 uM in MOPS aqueous buffer (250 mM, pH 7.0) containing MeCN (25% v/v) at 24 degC by HPLC analysis; conditions: pH 7, 70 µM
[3] = Half life of the compound at 100 uM in HEPES buffer (250 mM, pH 7.0) at 24 degC containing no organic solvent
[4] = Half life of the compound in sodium phosphate buffer (10 mM, pH 7.0) at 37 degC containing methanol (10% v/v)

| SMILES | t1/2 [1] | t1/2 [2] | half-life at 100 µM [3] | half-life [4] |
| --- | --- | --- | --- | --- |
| CC1(C)[S+]([O-])SC(=O)[C@@]1(C)O (stereo partly drawn) | 0.0467 h | 0.883 h |  |  |
| CC1(C)[S+]([O-])SC(=O)[C@]1(C)O (stereo partly drawn) | 0.0633 h | 1.87 h |  |  |
| C/C1=C\[C@@H](O)C(=O)/C=C/C=C\c2csc(n2)[C@@H](C)NC(=O)C[C@@]2(CC1)[S+]([O-])SC(=O)[C@]2(C)O (stereo partly drawn) [LEINAMYCIN] | 0.173 h | 27 h | 16.1 h | 8 h |
